Measured values taken from PubChem BioAssay (NCI).
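Dose response: 5 concentrations. Exposure: 48 h. Format: 96-well plates. Endpoint: linear interpolation; highest concentration if not reached. Here, GI50 denotes the concentration required for 50% inhibition of growth. TGI: total growth inhibition.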

Tests used:
Assay in all cases: NCI tumour cell line growth inhibition, 48 h
[1] = system: P388 leukemia
[2] = system: DLD-1 colon
[3] = system: KM20L2 colon
[4] = system: M19-MEL melanoma
[5] = system: NCI-H522 lung
[6] = system: DMS 273 small cell lung
[7] = system: HT29 colon
[8] = system: SN12C renal
[9] = system: XF 498 CNS
[10] = system: SW-620 colon
[11] = system: CAKI-1 renal
[12] = system: HCT-116 colon
[13] = system: DMS 114 small cell lung
[14] = system: SN12K1 renal
[15] = system: SNB-78 CNS
[16] = system: OVCAR-3 ovarian
[17] = system: HOP-18 NSCLC
[18] = system: MDA-MB-231 breast
[19] = system: RXF-631 renal

| SMILES | TGI [1] [µM] | TGI [2] [µM] | TGI [3] [µM] | TGI [4] [µM] | TGI [5] [µM] | TGI [6] [µM] | TGI [7] [µM] | TGI [8] [µM] | TGI [9] [µM] | TGI [10] [µM] | TGI [11] [µM] | TGI [12] [µM] | TGI [13] [µM] | TGI [14] [µM] | TGI [15] [µM] | TGI [16] [µM] | TGI [17] [µM] | TGI [18] [µM] | TGI [19] [µM] | GI50 [18] [µM] |
| --- | --- | --- | --- | --- | --- | --- | --- | --- | --- | --- | --- | --- | --- | --- | --- | --- | --- | --- | --- | --- |
| NCC(Cl)C(O)c1cnc(N)[nH]1 (stereo not given) | 1.06 | 29.2 | 20.8 | 29.8 | 7.1 | 21.4 | > 37.1 | 32.8 | 9.23 | 3.89 | 4.35 | > 34.5 | 40.7 | 12.4 | > 90.9 | 16.2 | 3.45 |  |  |  |
| CCN(CC)C(=O)c1cc(OC(C)C)ccc1-c1c(C)cc(OC(C)C)c(OC)c1OC |  | > 100 | > 100 |  | > 100 | > 100 | > 100 | > 100 | 73.9 | > 100 | > 100 | > 100 | > 100 |  |  | > 100 |  |  |  |  |
| CC(=O)OC1C=C(C=O)C(O)(C=O)C2(C)CCCC(C)(C)C12 (stereo not given) | 0.525 | 3.77 | 5.11 | 3.36 | 1.16 | 8.42 | 3.65 | 5.97 | 4.3 | 0.953 | 3.15 | 3.92 | 2.24 | 3.85 | 5.44 | 2.15 | 1.58 |  |  |  |
| COc1cc(C2C3=C(COC3=O)OC(C)(C)Oc3cc4c(cc32)OCO4)cc(OC)c1O (stereo not given) |  |  |  |  | 6.72 |  | > 23.3 | > 100 |  | > 31.3 | > 46.4 | > 20.8 |  |  |  | > 100 |  | 11.5 |  |  |
| Cc1c2c(cc3c1C(=O)C(=O)C([C@@H](C)CO)=C3O)C(C)(C)CCC2 |  |  |  |  | 62.8 |  | 30.6 | > 100 |  | > 100 | > 100 | 93.1 |  |  |  | > 100 |  | > 100 |  |  |
| CC1=NN(c2cccc(S(=O)(=O)O)c2)C2(C1)C(Cl)C(=O)N2c1nc2ccccc2s1 (stereo not given) |  |  |  |  | 3.99 |  | 22.2 | 19.9 |  | 21.1 | 8.48 | 20.4 |  |  |  | 9.26 |  | 23.1 |  |  |
| OC1=C2c3ccccc3NC2Oc2cc(F)ccc21 (stereo not given) |  |  |  |  | 52.8 |  | 38 | 25.9 |  | 47.9 | 48.4 | 28.7 |  |  |  | 27.9 |  | 33 |  |  |
| CC(C)=CCc1c(O)cc(O)c2c1OC(c1ccc(O)cc1)C(O)C2=O (stereo not given) |  | > 100 | 32.5 | > 100 | 42 |  | 40.3 | > 100 | 70.3 | > 100 |  | > 100 | > 100 |  | 95.3 | 36.7 | 43.4 |  | 97.9 |  |
| CC[C@@]1(O)C(=O)OCc2c1cc1n(c2=O)Cc2c-1nc1ccccc1c2/C=N\NC(=O)C[n+]1ccccc1 |  |  |  |  | > 43.5 |  | > 66.3 | > 69 |  | > 100 | 20 | > 38.1 |  |  |  | > 79.4 |  | > 100 |  |  |
| CC(=O)OC1=NN=C2COC(c3ccccc3OC(C)=O)=NN2C1 |  |  |  |  | > 50 |  | > 50 | > 50 |  | > 50 | > 50 | > 50 |  |  |  | > 50 |  | > 50 |  |  |
| CC(C)OC(=O)c1ccc(NCC2=CC(=O)C=CC2=O)cc1 |  |  |  |  | 3.27 |  | 32.7 | 26.1 |  | 26.5 | 11.1 | 28.6 |  |  |  | 21.6 |  | 25 |  |  |
| NC(=O)NC1NC(=O)NC1=O (stereo not given) |  |  |  |  | > 100 |  | > 100 | > 100 |  | > 100 | > 100 | > 100 |  |  |  | > 100 |  | > 100 |  |  |
| CC(C)C[C@H]1[C@@H](OCc2ccccc2)COS(=O)(=O)N1[C@H](C)c1ccccc1 |  |  |  |  | > 100 |  | > 100 | > 100 |  | > 100 | > 100 | > 100 |  |  |  | > 100 |  | > 100 |  |  |
| C=CCN1C(=O)/C(=C/c2ccc(Cl)cc2)N=C1SC/C=C/C |  |  |  |  | > 100 |  | > 100 | 71.1 |  | > 100 | > 100 | > 100 |  |  |  | > 100 |  | > 100 |  |  |
| Cc1[nH]c(=O)[nH]c(=O)c1/C=C/C(=O)NC(CO)CC(C)C (stereo not given) | > 375 | > 375 | > 237 | > 375 | > 375 | > 375 | > 375 | > 375 | > 346 | > 375 | 310 | > 375 | > 375 | > 375 | > 375 | > 375 | > 375 |  |  |  |
| CC1=NN(c2ccccc2)C2(C1)C(Cl)C(=O)N2c1nc2ccccc2s1 (stereo not given) |  |  |  |  | 58.9 |  | > 100 | > 100 |  | > 100 | > 100 | 51.5 |  |  |  | 47.9 |  | 89.2 |  |  |
| CCCCNC(=S)Nc1nc(C(=O)NNC(=S)NCC)cs1 |  |  |  |  | > 100 |  | > 100 | > 100 |  | > 100 | > 100 | > 100 |  |  |  | > 100 |  | > 100 |  |  |
| CCC1CN2CCc3cc(OC)c(OC)cc3C2CC1CC1c2cc(OC)c(OC)cc2CCN1C(=O)C(N)Cc1ccccc1 (stereo not given) |  | 14.1 | 3.52 |  | 1.73 | 5.22 | 10.4 | 10.8 | 10.5 | 10.9 | 11.2 | 1.29 |  |  |  | 15.4 |  |  | 8.11 |  |
| CCCN(CCc1ccc(-c2ccccc2)cc1)CCc1ccc2n[nH]nc2c1 |  |  |  |  | 25.9 |  | 23.6 | 27.4 |  | 36.3 | 25.5 | 18.1 |  |  |  | 25.8 |  | 28.1 |  |  |
| CN1CCC23c4c5ccc(Oc6nnnn6-c6ccccc6)c4OC2c2[nH]c4ccccc4c2CC3(O)C1C5 (stereo not given) |  |  |  |  | 4.01 |  | 5.3 | 8.67 |  | 6.14 | 4.77 | 3.45 |  |  |  | 22.5 |  | 4.16 |  |  |
| CC(C)(C)c1cc(S(=O)(=O)O)c2oc(-c3ccccc3)cc(=O)c2c1 |  |  |  |  | > 100 |  | > 100 | > 100 |  | > 100 | > 100 | > 100 |  |  |  | > 100 |  | > 100 |  |  |
| O=c1[nH]c(=O)n(C/C=C/CO)nc1Br |  |  |  |  | > 100 |  | > 100 | > 100 |  | > 100 | > 100 | > 100 |  |  |  | > 100 |  | > 100 |  |  |
| Cc1ccc2c(c1)C(=O)C1(C2)Cc2c(C)cccc2C1=O (stereo not given) |  |  |  |  | > 100 |  | > 100 | > 100 |  | > 100 | > 100 | > 100 |  |  |  | > 100 |  | > 100 |  |  |
| COc1ccc(C2C(C(=O)O)=C(CO)Oc3cc4c(cc32)OCO4)cc1 (stereo not given) |  | > 100 | > 100 | > 100 |  | > 100 | > 100 | > 100 | > 100 | > 100 | > 100 | > 100 | > 100 |  | > 100 | > 100 | > 100 |  | > 100 |  |
| NCc1ccc(-c2ccc(CN)s2)s1 |  |  |  |  | > 100 |  | > 100 | > 100 |  | > 100 | > 100 | > 100 |  |  |  | > 100 |  | > 100 |  |  |
| COc1cc2c(cc1C)NC(=O)/C2=C/c1cccnc1 |  |  |  |  | 33.4 |  | > 100 | 29.5 |  | 53.1 | 30.3 | 31.2 |  |  |  | 33.3 |  | 27.5 |  | 9.27 |
| O=C1C2=Cc3ccccc3CCN2c2ccccc21 |  |  |  |  | > 82.7 |  | 23 | > 31.6 |  | > 31.6 | 30.4 | > 70.4 |  |  |  | > 100 |  | > 59.4 |  |  |
